Legend:
[1] = Dissolution of the example 7 composition in media of different pH (Basket/100 RPM/900 ml); assay type: physicochemical; conditions: 0.1N HCl vs phosphate buffer pH 6.0 and pH 6.8
[2] = cited from earlier work
[3] = cited from earlier work; remark: listed apart in the source

Question: With CN1CCN(C2=Nc3cc(Cl)ccc3Nc3ccccc32)CC1 [Clozapine, 8-chloro-11-(4-methyl-1-piperazinyl)-5H-dibenzo[b,e][1,4]diazepine] as the compound, how does the “solubility behaviour concluded from dissolution data” value [1] read?
Answer: Its value is “pH dependent solubility”.

Question: And the “dose that reaches systemic circulation unchanged” value ([2]; extensive first pass metabolism)?
Answer: Its value is 27-50%.

Question: And the “plasma half-life, mean value” ([2]; wide inter-individual variation)?
Answer: Its value is 6 ± 1.5 h.

Question: And the “solubility in acidic pH” value ([3]; acidic pH)?
Answer: Its value is “soluble in acidic pH”.

Question: And the “solubility in basic pH” value ([3]; basic pH)?
Answer: Its value is “practically insoluble in basic pH”.

Question: And the “solubility in intestinal pH” value ([3]; intestinal pH)?
Answer: The value was “insoluble in intestinal pH”.

Question: And the solubility in water ([3]; water)?
Answer: Its solubility in water is “very slightly soluble in water”.

From patent US11504336B2, “Extended release pharmaceutical composition of clozapine” (INTAS PHARMACEUTICALS LTD., priority 2016, dated 2022)
